Source: patent US20220127297A1, “Novel Antibacterial 3"-Derivatives Of 4,6-Disubstituted 2,5-Dideoxystreptamine Aminoglycoside Antibiotics” (AGILeBiotics B.V., priority 2018, published 2022)
In brackets after ≈: the same amount, converted by molar mass. Like-named read-outs stand apart in the source and are kept apart here.

Test system: clinical isolates of multidrug-resistant Klebsiella pneumoniae (and ATCC43816)
Assay: MIC determination at Fidelta, clinical isolates
Assay type: cell-based
Text: 3.4.2 MIC Determination at Fidelta (Croatia)
Tested reference compounds. Amikacin sulfate (Cat. No. 01693, Chem-Impex), Gentamicin sulfate (Cat. No. G4918, Sigma Aldrich), Ceftazidime Pentahydrate (Cat. No. 1098130, USP), Meropenem (Cat. No. 1392454, USP), Tobramycin (Cat. No. 1667508, USP).
Microbial strains. Klebsiella pneumoniae KP-1919 (abdomen), Klebsiella pneumoniae KP-1935 (urine), Klebsiella pneumoniae KP-1936 (abscess), Klebsiella pneumoniae KP-1937 (blood), Klebsiella pneumoniae KP-1942 (urine), Klebsiella pneumoniae KP-1944 (blood), Klebsiella pneumoniae KP-2027 (tracheal aspirate), Klebsiella pneumoniae KP-2029 (urine), Klebsiella pneumoniae KP-2030 (trachea), Klebsiella pneumoniae KP-2031 (skin), Klebsiella pneumoniae KP-2032 (urine), Klebsiella pneumoniae KP-2033 (urine), Klebsiella pneumoniae KP-2034 (urine), Klebsiella pneumoniae KP-2035 (urine), Klebsiella pneumoniae KP-2036 (urine), Klebsiella pneumoniae KP-2037 (urine), Klebsiella pneumoniae ATCC 43816, Pseudomonas aeruginosa PA-1948 (wound), Pseudomonas aeruginosa PA-1949 (urine), Pseudomonas aeruginosa PA-1950 (sputum), Pseudomonas aeruginosa PA-1952 (wound), Pseudomonas aeruginosa PA-1953 (urine), Pseudomonas aeruginosa PA-1954 (sputum), Pseudomonas aeruginosa PA-1967 (blood), Pseudomonas aeruginosa ATCC27853, Acinetobacter baumannii AB-1931 (urine), Acinetobacter baumannii AB-1932 (urine), Acinetobacter baumannii AB-2017 (bronchial aspirate), Acinetobacter baumannii AB-2018 (skin), Acinetobacter baumannii AB-2019 (bronchial aspirate), Acinetobacter baumannii AB-1964 (blood), Acinetobacter baumannii AB-2025 (skin), Acinetobacter baumannii AB-2026 (skin), Acinetobacter baumannii ATCC17978, methicillin-resistant Staphylococcus aureus MRSA-1995 (liquor), methicillin-resistant Staphylococcus aureus MRSA-1998 (wound), methicillin-resistant Staphylococcus aureus MRSA-1999 (skin), methicillin-resistant Staphylococcus aureus MRSA-2003 (wound), vancomycin-resistant Enterococcus faecium VRE-2005 (urine), vancomycin-resistant Enterococcus faecium VRE-2006 (urine), vancomycin-resistant Enterococcus faecium VRE-2007 (urine), vancomycin-resistant Enterococcus faecium VRE-2008 (urine), vancomycin-resistant Enterococcus faecium VRE-2009 (urine), vancomycin-resistant Enterococcus faecium VRE-2010 (urine), vancomycin-resistant Enterococcus faecium VRE-2011 (rectum), vancomycin-resistant Enterococcus faecium VRE-2012 (rectum), vancomycin-resistant Enterococcus faecium VRE-2013 (rectum).
Culture media and equipment. BBL™ Mueller Hinton Broth (REF 275730, Lot. 7009699, Becton Dickinson); Mueller Hinton Agar 2 (Ref. No. 97580-500G-F, Lot. No. BCBV4646, Sigma); Cellstar, 96-well plates, U-bottom (Cat. No. 650180, Lot. No. E14123EB, Greiner Bio-one); 96-well deep well plate, 1 mL (Cat. No. 278606, Nunc); Incubator (Binder); Laminar flow (Thermo Scientific); BioPhotometer (Eppendorf); DEN-1B (McFarland Densitometer, Biosan); McFarland standards (polymer microparticle suspension, Biosan).
Compound preparation. For testing, 5 mg/mL DMSO solutions of the test compounds and reference antibiotics were used. Out of these DMSO solutions, 43.5 μL was transferred to 1656.5 μL of MH media in a deep well plate. Out of these working solutions 100 μL was transferred to wells in the third column of 96-well plates. Plates are previously filled with 50 μL of MH media in all wells except for the wells in the third column. After compound and antibiotic addition, 50 μL was transferred from the third to the fourth column, then from the fourth to the fifth and so on. In this manner, the compounds and antibiotics were plated in 96-well plate in serial two-fold dilutions giving a final concentration range of 64-0.125 μg/mL.
Inoculum preparation. Designations used for clinical isolates were from Fidelta strain collection bank. Microorganisms used were all revived from skim milk storage at −70° C. by plating them on MH agar plates.

[1] = Klebsiella pneumoniae, ATCC43816, KP-1919, Abdomen/VIM, ESBL, read-out: MIC 90
[2] = Klebsiella pneumoniae, ATCC43816, KP-1935, Urine/ESBL, NDM, read-out: MIC 90
[3] = Klebsiella pneumoniae, ATCC43816, KP-1936, Abscess/NDM, read-out: MIC 90
[4] = Klebsiella pneumoniae, ATCC43816, KP-1937, Blood/VIM, ESBL, read-out: MIC 90
[5] = Klebsiella pneumoniae, ATCC43816, KP-1942, Urine (catheter)/VIM, read-out: MIC 90
[6] = Klebsiella pneumoniae, ATCC43816, KP-1944, Blood/NDM, read-out: MIC 90
[7] = Klebsiella pneumoniae, ATCC43816, KP-2027, Tracheal aspirate/ESBL, OXA-48, ColR, read-out: MIC 90
[8] = Klebsiella pneumoniae, ATCC43816, KP-2029, Urine/ESBL, OXA-48, read-out: MIC 90
[9] = Klebsiella pneumoniae, ATCC43816, KP-2030, Trachea/ESBL, OXA-48, read-out: MIC 90
[10] = Klebsiella pneumoniae, ATCC43816, KP-2031, Skin/ESBL, OXA-48, read-out: MIC 90
[11] = Klebsiella pneumoniae, ATCC43816, KP-2032, Urine/ESBL, OXA-48, read-out: MIC 90
[12] = Klebsiella pneumoniae, ATCC43816, KP-2033, Urine/OXA-A8, read-out: MIC 90
[13] = Klebsiella pneumoniae, ATCC43816, KP-2034, Urine/ESBL, OXA-48, read-out: MIC 90
[14] = Klebsiella pneumoniae, ATCC43816, KP-2035, Urine/ESBL, OXA-48, read-out: MIC 90
[15] = Klebsiella pneumoniae, ATCC43816, KP-2036, Urine/ESBL, read-out: MIC 90
[16] = Klebsiella pneumoniae, ATCC43816, KP-2037, Urine/ESBL, OXA-48, read-out: MIC 90

| Structure (SMILES) | MIC90 [1] [µg/mL] | MIC90 [2] [µg/mL] | MIC90 [3] [µg/mL] | MIC90 [4] [µg/mL] | MIC90 [5] [µg/mL] | MIC90 [6] [µg/mL] | MIC90 [7] [µg/mL] | MIC90 (K. pneumoniae ATCC43816 strain) [µg/mL] | MIC90 [8] [µg/mL] | MIC90 [9] [µg/mL] | MIC90 [10] [µg/mL] | MIC90 [11] [µg/mL] | MIC90 [12] [µg/mL] | MIC90 [13] [µg/mL] | MIC90 [14] [µg/mL] | MIC90 [15] [µg/mL] | MIC90 [16] [µg/mL] | also measured |
| --- | --- | --- | --- | --- | --- | --- | --- | --- | --- | --- | --- | --- | --- | --- | --- | --- | --- | --- |
| N=C(N)NC1[C@@H](O)C(OC2[C@@H](F)[C@H](O[C@H]3OC(CN)[C@@H](O)[C@H](O)C3N)C(N)C[C@H]2NC(=O)[C@@H](O)CCN)O[C@H](CO)[C@H]1O (some centres unmarked) [ABX4006, KanaB-AHB-F-Gua] | 1 (≈ 1.59 µM) | 0.5 (≈ 0.795 µM) | 0.5 (≈ 0.795 µM) | 4 (≈ 6.36 µM) | 0.25 (≈ 0.398 µM) | 1 (≈ 1.59 µM) | 0.5 (≈ 0.795 µM) | – | – | – | – | – | – | – | – | – | – | – |
| N=C(N)NC1C(O)[C@@H](CO)OC(OC2C(F)[C@H](O[C@H]3OC(CN)[C@@H](O)CC3N)C(N)C[C@H]2NC(=O)[C@@H](O)CCN)[C@@H]1O (some centres unmarked) [ABX5006, Tobra-AHB-F-Gua] | 0.5 (≈ 0.816 µM) | 0.5 (≈ 0.816 µM) | 0.5 (≈ 0.816 µM) | 2 (≈ 3.26 µM) | 0.25 (≈ 0.408 µM) | 1 (≈ 1.63 µM) | 0.5 (≈ 0.816 µM) | 0.25 (≈ 0.408 µM) | 0.25 (≈ 0.408 µM) | 0.5 (≈ 0.816 µM) | 0.5 (≈ 0.816 µM) | 0.25 (≈ 0.408 µM) | 0.25 (≈ 0.408 µM) | 0.5 (≈ 0.816 µM) | 0.5 (≈ 0.816 µM) | 0.25 (≈ 0.408 µM) | 0.5 (≈ 0.816 µM) | – |
| N=C(NCCN)NC1C(O)[C@@H](CO)OC(OC2C(F)[C@H](O[C@H]3OC(CN)[C@@H](O)CC3N)C(N)C[C@H]2NC(=O)[C@@H](O)CCN)[C@@H]1O (some centres unmarked) [ABX5020, Tobra-AHB-F-Gua-2-amino-ethyl] | 4 (≈ 6.1 µM) | 4 (≈ 6.1 µM) | 2 (≈ 3.05 µM) | 8 (≈ 12.2 µM) | 1 (≈ 1.53 µM) | 4 (≈ 6.1 µM) | 2 (≈ 3.05 µM) | 1 (≈ 1.53 µM) | – | – | – | – | – | – | – | – | – | – |
| N=C(NC[C@@H]1CCCN1)NC1[C@@H](O)C(OC2[C@@H](F)[C@H](O[C@H]3OC(CN)[C@@H](O)CC3N)C(N)C[C@H]2NC(=O)[C@@H](O)CCN)O[C@H](CO)[C@H]1O (stereo partly drawn) [ABX5026, Tobra-AHB-F-Gua (S) pyrrolidine-2-yl-methyl] | 1 (≈ 1.44 µM) | 1 (≈ 1.44 µM) | 1 (≈ 1.44 µM) | 2 (≈ 2.87 µM) | 1 (≈ 1.44 µM) | 2 (≈ 2.87 µM) | 1 (≈ 1.44 µM) | 1 (≈ 1.44 µM) | 0.5 (≈ 0.719 µM) | 1 (≈ 1.44 µM) | 0.5 (≈ 0.719 µM) | 0.5 (≈ 0.719 µM) | 0.5 (≈ 0.719 µM) | 1 (≈ 1.44 µM) | 0.5 (≈ 0.719 µM) | 0.5 (≈ 0.719 µM) | 0.5 (≈ 0.719 µM) | – |
| N=C(NC[C@@H]1CCNC1)NC1[C@@H](O)C(OC2[C@@H](F)[C@H](O[C@H]3OC(CN)[C@@H](O)CC3N)C(N)C[C@H]2NC(=O)[C@@H](O)CCN)O[C@H](CO)[C@H]1O (stereo partly drawn) [ABX5039, Tobra-AHB-F-Gua (R) pyrrolidine-3-ylmethyl] | 1 (≈ 1.44 µM) | 2 (≈ 2.87 µM) | 1 (≈ 1.44 µM) | 2 (≈ 2.87 µM) | 1 (≈ 1.44 µM) | 2 (≈ 2.87 µM) | 1 (≈ 1.44 µM) | 1 (≈ 1.44 µM) | 0.5 (≈ 0.719 µM) | 1 (≈ 1.44 µM) | 0.5 (≈ 0.719 µM) | 0.5 (≈ 0.719 µM) | 0.5 (≈ 0.719 µM) | 1 (≈ 1.44 µM) | 1 (≈ 1.44 µM) | 1 (≈ 1.44 µM) | 0.5 (≈ 0.719 µM) | – |
| NCC[C@H](O)C(=O)N[C@@H]1C[C@H](N)[C@@H](O[C@H]2O[C@H](CN)[C@@H](O)[C@H](O)[C@H]2O)[C@H](O)[C@H]1O[C@H]1O[C@H](CO)[C@@H](O)[C@H](N)[C@H]1O [Amikacin, amikacin, reference compound] | – | – | – | – | – | – | – | – | – | – | – | – | – | – | – | – | – | MIC90 (Klebsiella pneumoniae, ATCC43816): 0.5 µg/mL (≈ 0.854 µM); MIC90 (Klebsiella pneumoniae, ATCC43816, KP-1919, Abdomen/VIM, ESBL): 8 µg/mL (≈ 13.7 µM); MIC90 (Klebsiella pneumoniae, ATCC43816, KP-1935, Urine/ESBL, NDM): 8 µg/mL (≈ 13.7 µM); MIC90 (Klebsiella pneumoniae, ATCC43816, KP-1936, Abscess/NDM): 4 µg/mL (≈ 6.83 µM); MIC90 (Klebsiella pneumoniae, ATCC43816, KP-1937, Blood/VIM, ESBL): 32 µg/mL (≈ 54.6 µM); MIC90 (Klebsiella pneumoniae, ATCC43816, KP-1942, Urine (catheter)/VIM): 2 µg/mL (≈ 3.42 µM); MIC90 (Klebsiella pneumoniae, ATCC43816, KP-1944, Blood/NDM): 8 µg/mL (≈ 13.7 µM); MIC90 (Klebsiella pneumoniae, ATCC43816, KP-2027, Tracheal aspirate/ESBL, OXA-48, ColR): 4 µg/mL (≈ 6.83 µM); MIC90 (Klebsiella pneumoniae, ATCC43816, KP-2029, Urine/ESBL, OXA-48): 8 µg/mL (≈ 13.7 µM); MIC90 (Klebsiella pneumoniae, ATCC43816, KP-2030, Trachea/ESBL, OXA-48): 16 µg/mL (≈ 27.3 µM); MIC90 (Klebsiella pneumoniae, ATCC43816, KP-2031, Skin/ESBL, OXA-48): 8 µg/mL (≈ 13.7 µM); MIC90 (Klebsiella pneumoniae, ATCC43816, KP-2032, Urine/ESBL, OXA-48): 4 µg/mL (≈ 6.83 µM); MIC90 (Klebsiella pneumoniae, ATCC43816, KP-2033, Urine/OXA-A8): 2 µg/mL (≈ 3.42 µM); MIC90 (Klebsiella pneumoniae, ATCC43816, KP-2034, Urine/ESBL, OXA-48): 16 µg/mL (≈ 27.3 µM); MIC90 (Klebsiella pneumoniae, ATCC43816, KP-2035, Urine/ESBL, OXA-48): 8 µg/mL (≈ 13.7 µM); MIC90 (Klebsiella pneumoniae, ATCC43816, KP-2036, Urine/ESBL): 8 µg/mL (≈ 13.7 µM); MIC90 (Klebsiella pneumoniae, ATCC43816, KP-2037, Urine/ESBL, OXA-48): 4 µg/mL (≈ 6.83 µM) |
